PMC3565318, “Catalytic Mechanism of Short Ethoxy Chain Nonylphenol Dehydrogenase Belonging to a Polyethylene Glycol Dehydrogenase Group in the GMC Oxidoreductase Family” (International Journal of Molecular Sciences, 2013)

Target: T1, NPEO-DH (short ethoxy chain nonylphenol dehydrogenase) (Ensifer sp. AS08, UniProt Q2HXX0)
T1 construct: gene pegdh; complete ORF (1659 bp, 553 residues) in pCold I, His-tag, expressed in E. coli BL21(DE3) pLysS, Ni-NTA purified; FAD flavoprotein
Test: stopped-flow, absorbance at […] nm
Type: biochemical
Conditions: electron acceptor; PEG 1000-reduced enzyme, 0.01 mM DCIP, 0.1 M Tris-HCl pH 8.0, 30 °C

T1 sequence (Q2HXX0 entry or part of it): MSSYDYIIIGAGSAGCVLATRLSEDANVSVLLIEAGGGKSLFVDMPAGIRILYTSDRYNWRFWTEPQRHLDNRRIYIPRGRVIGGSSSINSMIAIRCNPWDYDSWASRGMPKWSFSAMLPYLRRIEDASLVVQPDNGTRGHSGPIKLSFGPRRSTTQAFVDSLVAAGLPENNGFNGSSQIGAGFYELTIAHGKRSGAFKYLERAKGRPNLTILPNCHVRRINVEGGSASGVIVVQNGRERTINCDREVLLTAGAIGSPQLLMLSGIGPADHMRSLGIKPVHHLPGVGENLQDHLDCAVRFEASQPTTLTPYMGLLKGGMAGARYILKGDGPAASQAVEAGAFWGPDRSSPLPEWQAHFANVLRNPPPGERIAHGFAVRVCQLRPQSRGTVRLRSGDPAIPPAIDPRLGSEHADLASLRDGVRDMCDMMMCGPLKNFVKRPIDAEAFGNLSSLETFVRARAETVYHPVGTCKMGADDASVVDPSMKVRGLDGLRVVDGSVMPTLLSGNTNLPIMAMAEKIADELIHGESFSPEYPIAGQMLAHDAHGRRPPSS

## O=C1C(Cl)=CC(=Nc2ccc(O)cc2)C=C1Cl [2,6-dichloroindophenol]
  stopped-flow, absorbance at 600 nm: performed with the reduced form of enzyme (reduced flavin) and a minimal concentration of DCIP
